Results: patent publication US7169567B1, “Screening assay utilizing the PTH receptor” (The General Hospital Corporation, priority 1998, dated 2007)

Legend:
[1] = target: T1, intact rat PTH-1 receptor (rWT-HA) (Rattus norvegicus, UniProt P25961); assay: cAMP inhibition assay in COS-7 cells expressing rWT-HA; type: cell-based; conditions: antagonist 10 mM
T1 construct: expressed in transfected cells; host or cells: COS-7, transient (DEAE-dextran), pCDNA-1 based plasmid
T1 sequence (P25961 23-591 E93Y/N94P/K95Y/T99D/G100Y/S101A limits assumed): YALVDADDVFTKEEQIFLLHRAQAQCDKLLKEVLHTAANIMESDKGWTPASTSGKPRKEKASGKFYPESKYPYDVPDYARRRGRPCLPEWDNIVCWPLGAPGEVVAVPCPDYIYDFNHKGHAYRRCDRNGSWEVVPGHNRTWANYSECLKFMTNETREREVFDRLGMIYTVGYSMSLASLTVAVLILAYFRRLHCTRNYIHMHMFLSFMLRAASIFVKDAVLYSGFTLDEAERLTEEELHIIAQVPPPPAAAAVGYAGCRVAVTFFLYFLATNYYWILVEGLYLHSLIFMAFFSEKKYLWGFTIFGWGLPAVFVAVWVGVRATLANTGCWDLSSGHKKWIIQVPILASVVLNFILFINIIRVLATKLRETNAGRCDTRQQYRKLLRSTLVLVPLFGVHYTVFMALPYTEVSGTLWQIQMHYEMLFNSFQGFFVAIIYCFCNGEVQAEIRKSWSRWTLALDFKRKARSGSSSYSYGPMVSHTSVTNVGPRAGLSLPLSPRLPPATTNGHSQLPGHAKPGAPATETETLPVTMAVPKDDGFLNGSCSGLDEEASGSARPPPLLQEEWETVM
Method: (§1) FIG. 7. Antagonist Properties of PTHrP(7–34) with PTH(1–14). COS-7 cells transfected with rWT-HA (A) or rΔNt (B) were treated with the antagonist [Leu11,D-Trp12]hPTHrP(7–34)NH2 (or buffer alone), for 5 min at 22EC, followed by 10 ml of either rPTH(1–34) or rPTH(1–14) agonist peptide. Incubations were continued for 30 min at 21° C. and the resulting cAMP levels were measured by RIA, as described in Experimental Procedures. The final concentration of antagonist peptide present during the incubation was 10 mM. Shown are data from a single experiment performed in triplicate. A repeat of the same experiment yielded equivalent results.
For cAMP inhibition assays, transfected COS-7 cells were rinsed once with 500 ml of binding buffer, and 200 ml of IBMX buffer and 100 ml of binding buffer or binding buffer containing the antagonist [Leu11,D-Trp12]hPTHrP(7–34) NH2 (10 mM) were added. After a 5 minute incubation at room temperature, 10 ml of binding buffer containing PTH(1–14) or PTH(1–34) (agonist peptide) was added, and the incubation was continued for an additional 30 minutes. The cells were then lysed and intracellular cAMP levels were measured as described above. […]

[2] = target: T2, truncated rat PTH-1 receptor (rΔNt) (Rattus norvegicus, UniProt P25961, E586G); assay: cAMP inhibition assay in COS-7 cells expressing rΔNt; type: cell-based
T2 construct: contains an open reading frame encoding a protein of about 435 amino acid residues; expressed in transfected cells; host or cells: COS-7, transient (DEAE-dextran), pCDNA-1 based plasmid
T2 sequence (P25961 with tags, fused parts or gaps E586G): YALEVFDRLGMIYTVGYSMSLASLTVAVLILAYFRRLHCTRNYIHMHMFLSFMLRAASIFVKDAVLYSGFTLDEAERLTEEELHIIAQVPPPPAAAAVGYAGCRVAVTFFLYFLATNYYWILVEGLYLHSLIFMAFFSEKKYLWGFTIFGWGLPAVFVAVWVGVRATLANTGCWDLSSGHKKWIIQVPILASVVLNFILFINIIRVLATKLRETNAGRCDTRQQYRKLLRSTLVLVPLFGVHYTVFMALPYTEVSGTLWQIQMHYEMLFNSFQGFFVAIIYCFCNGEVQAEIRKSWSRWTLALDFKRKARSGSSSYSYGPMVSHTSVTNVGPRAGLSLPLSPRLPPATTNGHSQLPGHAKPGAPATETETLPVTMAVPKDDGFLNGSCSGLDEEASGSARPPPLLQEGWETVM
Method: as §1
For cAMP inhibition assays, transfected COS-7 cells were rinsed once with 500 ml of binding buffer, and 200 ml of IBMX buffer and 100 ml of binding buffer or binding buffer containing the antagonist [Leu11,D-Trp12]hPTHrP(7–34) NH2 (10 mM) were added. After a 5 minute incubation at room temperature, 10 ml of binding buffer containing PTH(1–14) or PTH(1–34) (agonist peptide) was added, and the incubation was continued for an additional 30 minutes. The cells were then lysed and intracellular cAMP levels were measured as described above.
In order to determine whether [Leu11,D-Trp12]hPTHrP(7–34)NH2, a potent competitive antagonist of PTH(1–34) action (Nutt, R. F., et al., Endocrinology 127:491–493 (1990)), could block the ability of PTH(1–14) to stimulate cAMP formation in COS-7 cells expressing either rWT-HA or rΔNt (FIG. 6). With rWT-HA the inhibitor peptide reduced the efficacy of both PTH(1–14) and PTH(1–34) by as much as 70% as compared to the responses elicited by these agonists in the absence of inhibitor (FIG. 6A).

[3] = cells expressing rΔNt, antagonist 10 mM

[Leu^11,D-Trp^12]hPTHrP(7–34)NH2 [[Leu11,D-Trp12]hPTHrP(7–34)NH2]
reduction of efficacy of PTH(1–14) (cAMP) compared to response in absence of inhibitor ([1]; agonist PTH(1–14)): ≤ 70%
reduction of efficacy of PTH(1–34) (cAMP) compared to response in absence of inhibitor ([1]; agonist PTH(1–34)): ≤ 70%
effect on the ability of PTH(1–14) to stimulate cAMP production [2, 3]: little or no effect
effect on the ability of PTH(1–34) to stimulate cAMP production [2, 3]: little or no effect
function as an antagonist with rΔNt ([2]; rΔNt): inability
